The subject of one data set is HIV-1 NL4-3 virus. In words: In vitro anti-HIV assay in TZM-bl cells. It is filed as cell-based.
Data set [1] addresses HIV-1NL4-3 capsid protein (CA hexamer). In words: SPR binding to CA hexamer. Conditions: hexamer versus monomer.
A short description of the next data set: in vitro. Conditions: human, microsomes.
For data set [2], the system named is NL4-3 Env pseudo-typed HIV-I virus. In words: ELISA-based quantification of capsid. It counts as cell-based, HIV-1. Conditions: 10 μM compound, compared to the DMSO control.
Data set [3] is described as follows: Human plasma stability assay. It is filed as in vitro ADME.
Another data set concerns the target HIV-1 CA (Human immunodeficiency virus type 1 group M subtype B, UniProt P12493). In words: In vitro capsid assembly assay. It is filed as biochemical. Conditions: capsid 30 μM, compound 50 μM, 3M NaCl, compared to DMSO control.

Consider eleven compounds from publication PMC7053825 (European journal of medicinal chemistry, 2020).

As to `COc1ccc(N(C)C(=O)[C@H](Cc2ccccc2)NC(=O)Cn2cc(-c3ccccc3NC(=O)c3ccccc3OC)nn2)cc1` [6a-4, (S)-2-methoxy-N-(2-(1-(2-((1-((4-methoxyphenyl)(methyl)amino)-1-oxo-3-phenylpropan-2-yl)amino)-2-oxoethyl)-1H-1,2,3-triazol-4-yl)phenyl)benzamide], in the data set on HIV-1 NL4-3 virus (EC50 relative to 6a-2), the “fold decrease in antiviral activity” value is listed as 2.2 fold.
With `COc1ccc(N(C)C(=O)[C@H](Cc2ccccc2)NC(=O)Cn2cc(-c3ccccc3NC(=O)c3cccc(OC)c3)nn2)cc1` [6a-5, (S)-3-methoxy-N-(2-(1-(2-((1-((4-methoxyphenyl)(methyl)amino)-1-oxo-3-phenylpropan-2-yl)amino)-2-oxoethyl)-1H-1,2,3-triazol-4-yl)phenyl)benzamide], the “fold decrease in antiviral activity” value in the data set with HIV-1 NL4-3 virus (EC50 relative to 6a-2) stood at 3.4 fold.
In the data set on HIV-1 NL4-3 virus (Human immunodeficiency virus 1, NL43, TZM-bl), `COc1ccc(C(=O)Nc2ccccc2-c2cn(CC(=O)N[C@@H](Cc3ccccc3)C(=O)N(C)c3ccc(OC)cc3)nn2)cc1` [6a-6, (S)-4-methoxy-N-(2-(1-(2-((1-((4-methoxyphenyl)(methyl)amino)-1-oxo-3-phenylpropan-2-yl)amino)-2-oxoethyl)-1H-1,2,3-triazol-4-yl)phenyl)benzamide] came in with an EC50 of more than 16.2 µM.
`COc1ccc(N(C)C(=O)[C@H](Cc2ccccc2)NC(=O)Cn2cc(-c3ccccc3NC(=O)c3ccccc3F)nn2)cc1` [6a-9, (S)-2-fluoro-N-(2-(1-(2-((1-((4-methoxyphenyl)(methyl)amino)-1-oxo-3-phenylpropan-2-yl)amino)-2-oxoethyl)-1H-1,2,3-triazol-4-yl)phenyl)benzamide]: in data set [1], the “difference in KD values for hexameric and monomeric CA” value was “no significant differences”. The compound further registered a CLint scaled at 1 h in the data set “in vitro” of 1400 mL/min/kg. Further, the “reduction of p24 of the produced virus” value in data set [2] was “about 15%”. In data set [3], this compound came in with a fraction remaining at 0 h of 100%.
`COc1ccc(N(C)C(=O)[C@H](Cc2ccccc2)NC(=O)Cn2cc(-c3ccccc3NC(=O)c3cccc(F)c3)nn2)cc1` [6a-10, (S)-3-fluoro-N-(2-(1-(2-((1-((4-methoxyphenyl)(methyl)amino)-1-oxo-3-phenylpropan-2-yl)amino)-2-oxoethyl)-1H-1,2,3-triazol-4-yl)phenyl)benzamide]: the “difference in KD values for hexameric and monomeric CA” value in data set [1] is given as “no significant differences”.
`COc1ccc(N(C)C(=O)[C@H](Cc2ccccc2)NC(=O)Cn2cc(-c3cccc(NC(C)=O)c3)nn2)cc1` [6b-1, (S)-2-(2-(4-(3-acetamidophenyl)-1H-1,2,3-triazol-1-yl)acetamido)-N-(4-methoxyphenyl)-N-methyl-3-phenylpropanamide]: the “fold decrease in antiviral activity” value in the data set on HIV-1 NL4-3 virus (EC50 relative to 5b) stood at 4.5 fold.
Consider `COc1ccc(N(C)C(=O)[C@H](Cc2ccccc2)NC(=O)Cn2cc(-c3cccc(NC(=O)c4ccccc4)c3)nn2)cc1` [6b-2, (S)-N-(3-(1-(2-((1-((4-methoxyphenyl)(methyl)amino)-1-oxo-3-phenylpropan-2-yl)amino)-2-oxoethyl)-1H-1,2,3-triazol-4-yl)phenyl)benzamide], for which, in the data set with HIV-1 NL4-3 virus (EC50 relative to 5b), the “fold decrease in antiviral activity” value was determined as 3.9 fold.
For `COc1ccc(N(C)C(=O)[C@H](Cc2ccccc2)NC(=O)Cn2cc(-c3cccc(NC(=O)c4cccc(F)c4)c3)nn2)cc1` [6b-10, (S)-3-fluoro-N-(3-(1-(2-((1-((4-methoxyphenyl)(methyl)amino)-1-oxo-3-phenylpropan-2-yl)amino)-2-oxoethyl)-1H-1,2,3-triazol-4-yl)phenyl)benzamide], in the data set on HIV-1 NL4-3 virus (EC50 with respect to 6b-2), the fold better active was 1.3 fold.
`Cc1[nH]c2ccccc2c1CC(=O)N[C@@H](Cc1ccccc1)C(=O)N(C)c1ccccc1` [PF-74]: the “effect on in vitro assembly of HIV-1 CA” value on HIV-1 CA is reported as “accelerated the assembly of HIV-1 CA”. The CLint scaled at 1 h in “in vitro” worked out at 2160 mL/min/kg.
For `CC(C)[N+](C)(CCOC(=O)C1c2ccccc2Oc2ccccc21)C(C)C` [Propantheline bromide, reference compound], in data set [3], the amount remaining at 0 h is 100%.
Turning to `C[C@]12CC[C@H]3[C@@H](CCC4=CC(=O)CC[C@@]43C)[C@@H]1CC[C@@H]2O` [Testosterone], where the note is “HLM 0.5 mg protein/mL”, the “Remaining (T=60min)” value is listed as 3.6%. Also, the “Remaining (NCF=60min)” value (HLM, no cofactor (no NADPH regenerating system)) amounted to 74.4%. In “in vitro”, this compound gave a CLint scaled at 1 h of 169 mL/min/kg.

The term EC50 denotes the concentration giving half of the maximal effect. A lower EC50 goes with greater potency. The term CLint scaled denotes the capacity of the preparation to metabolise the compound, expressed as a volume cleared per time. Low values mean greater metabolic stability, high ones faster metabolism. Usually share remaining stands for the share of the starting amount still present when the sample was taken. Low values mean more turnover, high ones less turnover.
